Measurements as given in ChEMBL document CHEMBL1142870, “Antitumor potential of crown ethers: structure-activity relationships, cell cycle disturbances, and cell death studies of a series of ionophores” (J Med Chem, 2007).

Columns and labels:
HeLa = assay: Antiproliferative activity against HeLa cells after 72 hrs by MTT assay; type: functional, cell-based; details: Homo sapiens
NCI-H460 = assay: Antiproliferative activity against H460 cells after 72 hrs by MTT assay; type: functional, cell-based; details: Homo sapiens, NCI-H460, 72 h
MIA PaCa-2 [1] = assay: Antiproliferative activity against MiaPaCa2 cells after 72 hrs by MTT assay; type: functional, cell-based; details: Homo sapiens, MIA PaCa-2, 72 h
SW-620 = assay: Antiproliferative activity against SW620 cells after 72 hrs by MTT assay; type: functional, cell-based; details: Homo sapiens, SW-620, 72 h
MCF7 = assay: Antiproliferative activity against MCF7 cells after 72 hrs by MTT assay; type: functional, cell-based; details: Homo sapiens, MCF7, 72 h
MIA PaCa-2 [2] = assay: Cell cycle arrest at MiaPaCa2 cells by accumulation at S phase at 10 nM after 36 hrs; type: functional, Homo sapiens
MIA PaCa-2 [3] = assay: Cell cycle arrest at MiaPaCa2 cells by accumulation at G2/M phase at 10 nM after 24 hrs; type: functional, Homo sapiens
MIA PaCa-2 [4] = assay: Cell cycle arrest in MiaPaCa2 cells by accumulation at G1/G0 phase at 10 nM after 48 hrs; type: functional, Homo sapiens
MIA PaCa-2 [5] = assay: Cell cycle arrest at MiaPaCa2 cells by accumulation at G2/M phase at 10 nM after 48 hrs; type: functional, Homo sapiens
MIA PaCa-2 [6] = assay: Cell cycle arrest in MiaPaCa2 cells by accumulation at G1 phase at 10 nM; type: functional, cell-based; details: Homo sapiens, TDE = time-dependent effect
MIA PaCa-2 [7] = assay: Cell cycle arrest at MiaPaCa2 cells by accumulation at G2/M phase at 10 nM after 36 hrs; type: functional, Homo sapiens
MIA PaCa-2 [8] = assay: Cell cycle arrest in MiaPaCa2 cells by accumulation at G1/G0 phase at 10 nM after 24 hrs; type: functional, Homo sapiens
MIA PaCa-2 [9] = assay: Cell cycle arrest in MiaPaCa2 cells by accumulation at SubG1 phase at 10 nM after 24 hrs; type: functional, Homo sapiens
MIA PaCa-2 [10] = assay: Cell cycle arrest in MiaPaCa2 cells by accumulation at G1/G0 phase at 10 nM after 36 hrs; type: functional, Homo sapiens
MIA PaCa-2 [11] = assay: Cell cycle arrest at MiaPaCa2 cells by accumulation at S phase at 10 nM after 24 hrs; type: functional, Homo sapiens
MIA PaCa-2 [12] = assay: Cell cycle arrest in MiaPaCa2 cells by accumulation at SubG1 phase at 10 nM after 48 hrs; type: functional, Homo sapiens
MIA PaCa-2 [13] = assay: Cell cycle arrest at MiaPaCa2 cells by accumulation at S phase at 10 nM after 48 hrs; type: functional, Homo sapiens
MIA PaCa-2 [14] = assay: Cell cycle arrest in MiaPaCa2 cells by accumulation at SubG1 phase at 10 nM after 36 hrs; type: functional, Homo sapiens

Compound	IC50 (HeLa) [µM]	IC50 (NCI-H460) [µM]	IC50 (MIA PaCa-2 [1]) [µM]	IC50 (SW-620) [µM]	IC50 (MCF7) [µM]	other results
c1ccc2c(c1)OCCOCCOc1ccccc1OCCOCCO2	17	28	28	17	49	
c1ccc(CN2CCOCCOCCOCCOCC2)cc1	> 100	> 100	> 100	> 100	> 100	
OCCN(CCO)Cc1ccccc1	> 100	> 100	> 100	> 100	> 100	
c1ccc(CNCCOCCOCCNCc2ccccc2)cc1	24	31	> 100	39	> 100	
c1ccc2c(c1)OCCOCCOCCOCCOc1ccccc1OCCOCCOCCOCCO2	11	9	7	17	30	
c1ccc(CN2CCOCCOCCN(Cc3ccccc3)CCOCCOCC2)cc1	14	25	23	6	25	
COC(=O)[C@H](NC(=O)CN1CCOCCOCCN(CC(=O)N[C@@H](C(=O)OC)c2ccccc2)CCOCCOCC1)c1ccccc1	> 100	> 100	> 100	≥ 100	> 100	
C1CCC2OCCOCCOC3CCCCC3OCCOCCOC2C1 (stereo not drawn) [ICOSAHYDRODIBENZO[B,K][1,4,7,10,13,16]HEXAOXACYCLOOCTADECINE]	25	16	16	7	36	
CC(C)(C)c1cc2c(c(C(C)(C)C)c1)OCCOCCOc1c(cc(C(C)(C)C)cc1C(C)(C)C)OCCOCCO2	10	19	15	19	8	
CC(C)[C@@H]1NC(=O)[C@H](C)OC(=O)[C@@H](C(C)C)NC(=O)[C@@H](C(C)C)OC(=O)[C@H](C(C)C)NC(=O)[C@H](C)OC(=O)[C@@H](C(C)C)NC(=O)[C@@H](C(C)C)OC(=O)[C@H](C(C)C)NC(=O)[C@H](C)OC(=O)[C@@H](C(C)C)NC(=O)[C@@H](C(C)C)OC1=O [VALINOMYCIN]	0.001	0.001	0.001	0.0001	0.5	Activity (MIA PaCa-2 [2]): 12%; Activity (MIA PaCa-2 [3]): 24%; Activity (MIA PaCa-2 [4]): 62%; Activity (MIA PaCa-2 [5]): 18%; Activity (MIA PaCa-2 [6]): tde; Activity (MIA PaCa-2 [7]): 23%; Activity (MIA PaCa-2 [8]): 60%; Activity (MIA PaCa-2 [9]): 35%; Activity (MIA PaCa-2 [10]): 63%; Activity (MIA PaCa-2 [11]): 24%; Activity (MIA PaCa-2 [12]): 49%; Activity (MIA PaCa-2 [13]): 19%; Activity (MIA PaCa-2 [14]): 42%
c1ccc2c(c1)OCCOCCOCCOc1ccccc1OCCOCCOCCO2	21	24	32	72	> 100	
CC(C)(C)c1ccc(O)c(O)c1	24	22	20	22	23	
CC(C)(C)c1cc(O)c(OCCOCCOc2c(O)cc(C(C)(C)C)cc2C(C)(C)C)c(C(C)(C)C)c1	11	8	18	19	29	
O=C(NCC(=O)N1CCOCCOCCN(C(=O)CNC(=O)OCc2ccccc2)CCOCCOCC1)OCc1ccccc1	37	> 100	71	40	44	
